Results published in the NIST ThermoML archive (doi:10.1021/je400803f).

Assay: xn = mol fraction of the nth substance listed
Conditions: 101 kPa, Liquid, Vibrating tube method

CCCCN(C=O)CCCC [N,N-dibutylformamide] + CCCC[N+]1(C)CCCC1.FC(F)(F)C(F)(F)[P-](F)(F)(F)(C(F)(F)C(F)(F)F)C(F)(F)C(F)(F)F
mass density [kg/m3]
Conditions | 293.15 K | 298.15 K | 303.15 K | 308.15 K | 313.15 K | 318.15 K | 323.15 K
x2 = 0.0351 | 928.01 | 923.97 | 919.87 | 915.81 | 911.67 | 907.43 | 903.16
x2 = 0.0697 | 972.58 | 968.41 | 964.18 | 960.06 | 955.82 | 951.45 | 947.14
x2 = 0.0998 | 1008.79 | 1004.57 | 1000.33 | 996.06 | 991.74 | 987.31 | 982.93
x2 = 0.1498 | 1064.17 | 1059.81 | 1055.39 | 1051.03 | 1046.54 | 1042.09 | 1037.62
x2 = 0.1994 | 1114.29 | 1109.89 | 1105.41 | 1100.9 | 1096.39 | 1091.73 | 1087.01
x2 = 0.2999 | 1204.19 | 1199.58 | 1194.89 | 1190.17 | 1185.45 | 1180.61 | 1175.67
x2 = 0.4003 | 1281.29 | 1276.52 | 1271.65 | 1266.78 | 1261.89 | 1256.88 | 1251.71
x2 = 0.499 | 1347.44 | 1342.55 | 1337.52 | 1332.49 | 1327.52 | 1322.34 | 1317.03
x2 = 0.5993 | 1406.59 | 1401.54 | 1396.37 | 1391.2 | 1386.12 | 1380.87 | 1375.47
x2 = 0.6799 | 1449.07 | 1443.87 | 1438.69 | 1433.45 | 1428.23 | 1422.89 | 1417.48
x2 = 0.7754 | 1494.51 | 1489.34 | 1483.96 | 1478.61 | 1473.39 | 1467.94 | 1462.42
x2 = 0.8021 | 1506.51 | 1501.2 | 1495.89 | 1490.51 | 1485.21 | 1479.75 | 1474.28
x2 = 0.9011 | 1548.52 | 1543.24 | 1537.81 | 1532.31 | 1526.89 | 1521.4 | 1515.91
x2 = 0.949 | 1568.08 | 1562.74 | 1557.33 | 1551.79 | 1546.31 | 1540.77 | 1535.23
